From patent EP4458820A1 (Shanghai Institute of Materia Medica, Chinese Academy of …, priority 2021, dated 2023)
Several values for one entry are separate records, joined by “and”; a condition that tells them apart may be missing. Equal values may be shown once. Read-outs that look alike come from different tables or passages of the source.

Tests used:
[1] = pharmacokinetic studies in mice; type: in vivo; design: AUC(0-t) / AUClast: concentration or dose not given beside the values; conditions: for F: bioavailability p.o. versus i.v.
Protocol: The preliminary pharmacokinetic studies in mice or rats of the target compounds with excellent activity obtained from the above studies were conducted to investigate the pharmacokinetic properties of the compounds under oral, intraperitoneal and intravenous administration in detail, and to calculate the parameters of in vivo exposure (AUC), peak concentration (Cmax), time to peak (Tmax), half-life period (T1/2) and bioavailability (F), which would provide a clue for further structural modification and optimization of the compounds, as well as a basis for in vivo dosage design.

[2] = tested on: THRβ receptor downstream genes; test: acute pharmacodynamic evaluation: THRβ receptor downstream gene expression in liver after single administration; type: in vivo, C57 mice
Text: (§1) Mice or rats were used for single oral administration, and liver and heart were taken at 3 time points after administration to detect the expression of THRβ receptor downstream genes (DIO1, ME, CYP7α1, LDLR) in the target organ-liver, and to detect the expression of THRβ receptor downstream genes (DIO1, MHCα) in the organ involved in toxicity-heart.

MHCα = test: preliminary safety assessment: MHCα expression in the heart of C57 mice; type: in vivo; conditions: after administration
Text: as §1

thyroid axis = test: inhibitory effect on the thyroid axis in C57 mice; type: in vivo; conditions: administered at high doses
[3] = tissue distribution studies in mice; type: in vivo; conditions: for concentration at 3 h / concentration at 8 h / concentration at 24 h: mouse, po
[4] = tested on: cardiac DIO1 and MHCα genes; test: in vivo safety evaluation: downstream gene expression in the heart of thyroidectomized rats
Protocol: Normal SD rats, which underwent thyroidectomy and recovered for 1-2 weeks, were grouped by body weight and then given the test compounds or the positive compound MGL-3196. Cardiac tissues were taken after euthanasia 6 h after the administration of the drug to examine the expression of the αMHC gene in the heart after single dose of the drug.

[5] = tested on: CDAHFD feed-induced NAFLD model mice; test: pharmacodynamic evaluation in CDAHFD feed-induced NAFLD model mice; type: in vivo; conditions: after 2 and 4 weeks of long-term administration
[6] = tested on: high-fat feed -induced golden hamster model; test: pharmacodynamic evaluation in high-fat feed-induced golden hamster model; type: in vivo; conditions: 10 mg/kg, after 21 days of administration
[7] = mouse, in vivo, iv, individual animal
[8] = mouse, in vivo, po, individual animal
[9] = mouse, in vivo, po, individual animal, read-out: Cmax
[10] = mouse, in vivo, po, individual animal, read-out: Tmax
[11] = mouse, in vivo, po, mean, read-out: Cmax
[12] = mouse, in vivo, po, mean, read-out: Tmax
[13] = Table 4, oral 10 mg/kg, 3 h, individual animal, 10 mg/kg
[14] = Table 4, oral 10 mg/kg, 8 h, individual animal, 10 mg/kg
[15] = Table 4, oral 10 mg/kg, 24 h, individual animal, 10 mg/kg
[16] = Table 6, oral 10 mg/kg, 3.00 h, individual animal, 10 mg/kg
[17] = Table 6, oral 10 mg/kg, 8.00 h, individual animal, 10 mg/kg
[18] = Table 6, oral 10 mg/kg, 24.0 h, individual animal, 10 mg/kg

With Cc1cc(-c2ccc(F)cc2)nc2ccc(Oc3c(Cl)cc(-n4nc(C#N)c(=O)[nH]c4=O)cc3Cl)cc12 [Compound 3, 2-(3,5-Dichloro-4-((2-(4-fluorophenyl) -4-methylquinolin-6-yl)oxy)phenyl) -3,5-dioxo-2,3,4,5-tetrahydro-1,2,4-triazine-6-carbonitrile] the F [1] was 36.3%, the AUClast ([1]; i.v., individual animal) was 106.173 µg·h/mL and 104.125 µg·h/mL and the CL_obs ([1]; i.v., individual animal) was 0.67 mL/min/kg and 0.76 mL/min/kg and 0.75 mL/min/kg. For the same molecule, the T1/2 ([1]; i.v., individual animal) was 5.10 h and 6.62 h, the Vss_obs ([1]; i.v., individual animal) was 0.289 L/kg and 0.253 L/kg and 0.315 L/kg and the CL_obs ([1]; i.v., mean) was 0.73 mL/min/kg. It also gave a Vss_obs ([1]; i.v., mean) of 0.286 L/kg, an AUC(0-t) [1, 7] of 118 µg·h/mL and a half-life [1, 7] of 6.4 h. The AUC(0-t) ([1]; mouse, in vivo, iv, mean) was 109 µg·h/mL, the half-life ([1]; mouse, in vivo, iv, mean) was 6.04 h and the AUC(0-t) [1, 8] was 62.5 µg·h/mL. For the same molecule, the half-life [1, 8] was 4.31 h, the Cmax [1, 9] was 9650 ng/mL and the Tmax [1, 10] was 1 h. For the same molecule, the AUC(0-t) ([1]; mouse, in vivo, po, mean) was 79.4 µg·h/mL, the half-life ([1]; mouse, in vivo, po, mean) was 4.71 h and the Cmax [1, 11] was 10500 ng/mL. For the same molecule, the Tmax [1, 12] was 0.83 h, the AUClast ([1]; p.o., individual animal) was 100.901 µg·h/mL and 74.686 µg·h/mL and the Cmax ([1]; p.o., individual animal) was 12800 ng/mL and 9108 ng/mL. For the same molecule, the T1/2 ([1]; p.o., individual animal) was 4.80 h and 5.02 h, the Tmax ([1]; p.o., individual animal) was 0.50 h and the “hepatic DIO1 gene expression” value ([2]; 3h after administration) was “significantly up-regulated”. For the same molecule, the “hepatic DIO1 gene expression” value ([2]; after 8 h of administration, compared with the negative control group) was “still effective”, the “upregulation of MHCα in the heart” value (MHCα) was “did not result in upregulation” and the thyroid hormone levels (thyroid axis) was “did not affect”.
For Cc1cc(C(F)(F)F)nc2ccc(Oc3c(Cl)cc(-n4nc(C#N)c(=O)[nH]c4=O)cc3Cl)cc12 [Compound 38, 2-(3,5-Dichloro-4-((2-trifluoromethyl-4-methylquinolin-6-yl)oxy)phenyl) -3,5-dioxo-2,3,4,5-tetrahydro-1,2,4-triazine-6-carbonitrile], the F [1] was 75.8%, the AUClast ([1]; i.v., individual animal) was 95.351 µg·h/mL and 95.119 µg·h/mL and the CL_obs ([1]; i.v., individual animal) was 0.691 mL/min/kg and 0.859 mL/min/kg and 0.856 mL/min/kg. For the same molecule, the Cmax ([1]; i.v., individual animal) was 95119 ng/mL, the T1/2 ([1]; i.v., individual animal) was 4.30 h and 4.77 h and the Vss_obs ([1]; i.v., individual animal) was 0.22 L/kg and 0.27 L/kg and 0.267 L/kg. For the same molecule, the CL_obs ([1]; i.v., mean) was 0.802 mL/min/kg, the Vss_obs ([1]; i.v., mean) was 0.252 L/kg and the AUC(0-t) [1, 7] was 119 µg·h/mL. It also gave a half-life [1, 7] of 3.93 h, a Cmax ([1]; mouse, in vivo, iv, individual animal, read-out: Cmax) of 95400 ng/mL and an AUC(0-t) ([1]; mouse, in vivo, iv, mean) of 103 µg·h/mL. It also gave a half-life ([1]; mouse, in vivo, iv, mean) of 4.33 h, an AUC(0-t) [1, 8] of 162 µg·h/mL and a half-life [1, 8] of 5.01 h. It also gave a Cmax [1, 9] of 26000 ng/mL, a Tmax [1, 10] of 0.5 h and an AUC(0-t) ([1]; mouse, in vivo, po, mean) of 156 µg·h/mL. It also gave a half-life ([1]; mouse, in vivo, po, mean) of 4.44 h, a Cmax [1, 11] of 23100 ng/mL and a Tmax [1, 12] of 0.83 h. The AUClast ([1]; p.o., individual animal) was 176.967 µg·h/mL and 130.466 µg·h/mL, the Cmax ([1]; p.o., individual animal) was 23595 ng/mL and 19689 ng/mL and the T1/2 ([1]; p.o., individual animal) was 4.18 h and 4.13 h. The Tmax ([1]; p.o., individual animal) was 1.00 h, the Heart [3, 13] was 115 ng/g and 199 ng/g and 113 ng/g and the Liver [3, 13] was 3778 ng/g and 3241 ng/g and 3353 ng/g. For the same molecule, the Plasma [3, 13] was 8371 ng/mL and 7102 ng/mL and 6639 ng/mL, the Heart [3, 14] was 39.9 ng/g and 72.2 ng/g and 26.4 ng/g and 63.3 ng/g and the Liver [3, 14] was 582 ng/g and 895 ng/g and 264 ng/g and 729 ng/g. The Plasma [3, 14] was 2473 ng/mL and 4555 ng/mL and 2005 ng/mL and 3847 ng/mL, the Heart ([3]; Table 4, oral 10 mg/kg, 24 h, individual animal) was “BLQ” and the Liver [3, 15] was 29.5 ng/g and 27.8 ng/g and 14.5 ng/g and 16.3 ng/g. For the same molecule, the Plasma [3, 15] was 281 ng/mL and 192 ng/mL and 88.6 ng/mL and 93.6 ng/mL, the Heart [3, 16] was 215 ng/g and 169 ng/g and the Liver [3, 16] was 1478 ng/g and 1383 ng/g. The Plasma [3, 16] was 5796 ng/mL and 4534 ng/mL, the Heart [3, 17] was 196 ng/g and 116 ng/g and the Liver [3, 17] was 614 ng/g and 469 ng/g. For the same molecule, the Plasma [3, 17] was 4487 ng/mL and 2490 ng/mL, the Heart [3, 18] was 6.36 ng/g and 13.7 ng/g and 20.5 ng/g and the Liver [3, 18] was 23.3 ng/g and 39.5 ng/g and 56.7 ng/g. The Plasma [3, 18] was 165 ng/mL and 335 ng/mL and 412 ng/mL, the concentration at 3 h ([3]; heart, 10 mg/kg, Table 4, 3 h, individual animal, read-out: Heart) was 189 ng/g and the concentration at 3 h ([3]; heart, 10 mg/kg, Table 4, 3 h, mean, read-out: Heart Mean) was 154 ng/g. The concentration at 8 h ([3]; heart, 10 mg/kg, Table 4, 8 h, mean, read-out: Heart Mean) was 50.5 ng/g, the concentration at 24 h ([3]; heart, 10 mg/kg, Table 4, 24 h, mean, read-out: Heart Mean) was 0 ng/g and the concentration at 3 h ([3]; heart, 10 mg/kg, Table 6, 3.00 h, individual animal, read-out: Heart) was 197 ng/g. It also gave a concentration at 3 h ([3]; heart, 10 mg/kg, Table 6, 3.00 h, mean, read-out: Heart Mean) of 194 ng/g, a concentration at 8 h ([3]; heart, 10 mg/kg, Table 6, 8.00 h, individual animal, read-out: Heart) of 139 ng/g and a concentration at 8 h ([3]; heart, 10 mg/kg, Table 6, 8.00 h, mean, read-out: Heart Mean) of 150 ng/g. The concentration at 24 h ([3]; heart, 10 mg/kg, Table 6, 24.0 h, mean, read-out: Heart Mean) was 13.5 ng/g, the concentration at 3 h ([3]; liver, 10 mg/kg, Table 4, 3 h, individual animal, read-out: Liver) was 4300 ng/g and the concentration at 3 h ([3]; liver, 10 mg/kg, Table 4, 3 h, mean, read-out: Liver Mean) was 3670 ng/g. The concentration at 8 h ([3]; liver, 10 mg/kg, Table 4, 8 h, mean, read-out: Liver Mean) was 617 ng/g, the concentration at 24 h ([3]; liver, 10 mg/kg, Table 4, 24 h, mean, read-out: Liver Mean) was 22 ng/g and the concentration at 3 h ([3]; liver, 10 mg/kg, Table 6, 3.00 h, individual animal, read-out: Liver) was 1880 ng/g. It also gave a concentration at 3 h ([3]; liver, 10 mg/kg, Table 6, 3.00 h, mean, read-out: Liver Mean) of 1580 ng/g, a concentration at 8 h ([3]; liver, 10 mg/kg, Table 6, 8.00 h, individual animal, read-out: Liver) of 689 ng/g and a concentration at 8 h ([3]; liver, 10 mg/kg, Table 6, 8.00 h, mean, read-out: Liver Mean) of 591 ng/g. It also gave a concentration at 24 h ([3]; liver, 10 mg/kg, Table 6, 24.0 h, mean, read-out: Liver Mean) of 39.8 ng/g, a concentration at 3 h ([3]; plasma, 10 mg/kg, Table 4, 3 h, individual animal, read-out: Plasma) of 9340 ng/mL and a concentration at 3 h ([3]; plasma, 10 mg/kg, Table 4, 3 h, mean, read-out: Plasma Mean) of 7860 ng/mL. For the same molecule, the concentration at 8 h ([3]; plasma, 10 mg/kg, Table 4, 8 h, mean, read-out: Plasma Mean) was 3220 ng/mL, the concentration at 24 h ([3]; plasma, 10 mg/kg, Table 4, 24 h, mean, read-out: Plasma Mean) was 164 ng/mL and the concentration at 3 h ([3]; plasma, 10 mg/kg, Table 6, 3.00 h, mean, read-out: plasma Mean) was 5260 ng/mL. It also gave a concentration at 8 h ([3]; plasma, 10 mg/kg, Table 6, 8.00 h, mean, read-out: plasma Mean) of 3430 ng/mL, a concentration at 24 h ([3]; plasma, 10 mg/kg, Table 6, 24.0 h, mean, read-out: plasma Mean) of 304 ng/mL and a concentration at 3 h ([3]; 10 mg/kg, Table 6, 3.00 h, individual animal, read-out: plasma) of 5450 ng/mL. For the same molecule, the concentration at 8 h ([3]; 10 mg/kg, Table 6, 8.00 h, individual animal, read-out: plasma) was 3330 ng/mL, the “expression of CYP7α1, ME2, and LDLR genes in the liver” value ([2]; C57 mice, single administration, 10 mg/kg, after 24 h of administration) was “significantly up-regulated” and the “DIO1 gene expression in the liver” value ([2]; C57 mice, single administration, after 8 and 24 h of administration, T3 0.5 mg/kg, compound 38 10 mg/kg) was “significantly up-regulated”. For the same molecule, the “effects on cardiac DIO1 and MHCα genes” value [4] was “neither compound 38 nor MGL3196 had significant effects”, the “plasma TC levels” value ([5]; 1 mg/kg dosage group) was “decreased” and the “plasma TC levels” value ([5]; 10 mg/kg dosage group) was “decreased”. For the same molecule, the “serum TC/TG levels and LCL-C levels” value [6] was “significant decrease”.
